How the values were obtained:
[1] = tested on: iMylc® cells (immature myeloid cells induced by differentiation from iPS cells), IL-6 production; experiment: IL-6 production activity in iMylc cells (immature dendritic cells); assay type: cell-based, human; conditions: 20 h, 37 °C, 5% CO2, DMSO 0.1% (v/v), ELISA of culture supernatant, FIG. 1
Protocol: In this experiment, iMylc® cells (immature myeloid cells induced by differentiation from iPS cells) purchased from Mycen Technologies Inc. were used. These cells were cultured and subjected to evaluation tests using the dedicated maintenance medium for iMylc® cells provided by Mycen Technologies Inc.
The iMylc® cells were seeded into 96-well plates (1.0×10^4 cells/well/100 μL). After adding 100 μL/well of medium containing the test substance, the cells were incubated for 20 hours at 37 °C under 5% CO2. The final concentration of DMSO was adjusted to 0.1% (v/v). After incubation, the amount of IL-6 produced in the culture supernatant was measured using a commercially available kit (Human IL-6 ELISA MAX™ Deluxe Set, BioLegend) in accordance with the manufacturer's instructions.

[2] = tested on: CD4-positive helper T cells (human PBMCs cocultured with αMylc® cells); experiment: Mixed lymphocyte reaction (MLR), helper T cell proliferation induced by αMylc cells; assay type: cell-based; conditions: 10 μM; αMylc cells treated 24 h, MLR coculture 7 days; N=3; FIG. 5
Protocol: The test was conducted using a mixed lymphocyte reaction (MLR). In this method, αMylc® cells (derived from human peripheral blood) that had shown IL-6 production-promoting activity were treated with GlcCer[d18:2(4E,8Z)/18:0], GlcCer[t18:1(8Z)/20:0], GlcCer[d18:2(4E,8Z)/20:0], or GlcCer[d18:2(4E,8Z)/26:0] at concentrations of 1 or 10 μM for 24 hours.
During this period, peripheral blood mononuclear cells (PBMCs) isolated from human blood were labeled with the cell membrane-permeable dye carboxyfluorescein diacetate succinimidyl ester (CFDA-SE) by incubation for 7 minutes. After staining, αMylc® cells and PBMCs were mixed at a 1:2 ratio (2×10^4 cells: 4×10^4 cells) and cocultured for 7 days.
Subsequently, the mean fluorescence intensity (MFI) of CD4 (APC-stained; helper T cell marker) and CFDA (cell proliferation indicator) was quantified by flow cytometry (N=3). In the present MLR assay, the activation index was defined as the proliferation rate of helper T cells, and the gating strategy used in this analysis is shown in FIG. 4.

Compound	IL-6 production [1]	T-cell proliferation rate [2]
CCCCCCCCCCCCCCCCCCCCC(O)C(=O)N[C@@H](CO)[C@H](O)[C@H](O)CCCCCCCCCCCCCC (stereo partly shown) [Cer[t18:0/22:0]]	significant activity	
CCCCCCCCC/C=C\CC/C=C/[C@@H](O)[C@H](CO[C@@H]1O[C@H](CO)[C@@H](O)[C@H](O)[C@H]1O)NC(=O)[C@H](O)CCCCCCCCCCCCCCCCCCCCCCCC [GlcCer[d18:2(4E,8Z)/26:0]]	significant activity	a significant increase in T-cell proliferation rate
CCCCCCCCC/C=C\CCC[C@@H](O)[C@@H](O)[C@H](CO[C@@H]1OC(CO)[C@@H](O)[C@@H](O)C1O)NC(=O)[C@H](O)CCCCCCCCCCCCCCCCCC (stereo partly shown) [GlcCer[t18:1(8Z)/20:0]]	significant activity	

— patent publication US20260325559A1, “Immune Activator Agent” (Oryza Oil & Fat Chemical Co., Ltd., priority 2023, published 2026)
